Measurements as given in ChEMBL document CHEMBL2029340 (J Med Chem, 2012).
Calls of active or inactive are those of the source. No cut-off for these calls is given here.

Experiments:
[1] = system: Influenza A virus; test: Antiviral activity against amantidine-resistant Influenza A virus A/WSN/33(H1N1) infected in MDCK cells assessed as inhibition of virus-induced cytopathic effects after 3 days by CCK-8 assay; assay type: functional, organism-based; conditions: A/WSN/1933(H1N1), 72 h
[2] = system: Influenza A virus; test: Antiviral activity against amantidine-resistant Influenza A virus A/WSN/33(H1N1) infected in MDCK cells assessed as reduction in plaque formation at 1 uM after 3 days by microscopy; assay type: functional, organism-based; conditions: A/WSN/1933(H1N1)
[3] = system: Influenza A virus; test: Antiviral activity against amantidine-resistant Influenza A virus A/WSN/33(H1N1) infected in MDCK cells assessed as reduction in plaque formation at 0.3 uM after 3 days by microscopy; assay type: functional, organism-based; conditions: A/WSN/1933(H1N1)
[4] = system: Influenza A virus; test: Antiviral activity against amantidine-resistant Influenza A virus A/WSN/33(H1N1) infected in MDCK cells assessed as reduction in plaque formation after 3 days by microplate counting of infectious particles assay; assay type: functional, organism-based; conditions: A/WSN/1933(H1N1), 72 h
[5] = system: Influenza A virus; test: Antiviral activity against Influenza A virus A/WSN/1933 (H1N1) harboring nucleoprotein 52H mutant infected in MDCK cells assessed as reduction of nucleoprotein antigen level after 3 days; assay type: functional, organism-based
[6] = system: Influenza A virus; test: Antiviral activity against tamiflu-resistant Influenza A virus A/WSN/33 (H1N1) harboring neuraminidase 274Y mutant infected in MDCK cells assessed as reduction of nucleoprotein antigen level after 3 days; assay type: functional, organism-based, A/WSN/1933(H1N1)
[7] = system: Influenza A virus; test: Antiviral activity against Influenza A virus A/WSN/1933 (H1N1) harboring wild type nucleoprotein 52Y infected in MDCK cells assessed as reduction of nucleoprotein antigen level after 3 days; assay type: functional, organism-based; conditions: 72 h
[8] = system: Influenza A virus; test: Antiviral activity against amantidine-resistant Influenza A virus A/WSN/33(H1N1) infected in MDCK cells assessed as reduction in plaque formation after 3 days by microscopy; assay type: functional, organism-based; conditions: A/WSN/1933(H1N1)

SMILES | IC50 [1] | further results
Cc1nnn(-c2ccccc2)c1C(=O)N1CCN(c2ccc([N+](=O)[O-])cc2Cl)CC1 | 3.13 µM | –
COc1ccccc1-c1onc(C)c1C(=O)N1CCN(c2ccc([N+](=O)[O-])cc2Cl)CC1 | 0.71 µM | –
Cc1[nH]nc(-c2ccccc2)c1C(=O)N1CCN(c2ccc([N+](=O)[O-])cc2Cl)CC1 | 3.38 µM | –
COc1cc([N+](=O)[O-])ccc1N1CCN(C(=O)c2c(C)nnn2-c2ccccc2OC)CC1 | > 50 µM | –
COc1ccccc1-n1nnc(C)c1C(=O)N1CCCN(c2ccc([N+](=O)[O-])cc2Cl)CC1 | 35.5 µM | –
COc1cccc(-n2nnc(C)c2C(=O)N2CCN(c3ccc([N+](=O)[O-])cc3Cl)CC2)c1 | 5.35 µM | –
COc1ccccc1-n1nnc(C)c1C(=O)N1CCN(c2ccccc2)CC1 | > 50 µM | –
Cc1[nH]nc(-c2ccccc2Cl)c1C(=O)N1CCN(c2ccc([N+](=O)[O-])cc2Cl)CC1 | 0.72 µM | –
Cc1nnn(-c2ccccc2O)c1C(=O)N1CCN(c2ccc([N+](=O)[O-])cc2Cl)CC1 | 1.58 µM | –
COc1ccccc1-n1nncc1C(=O)N1CCN(c2ccc([N+](=O)[O-])cc2Cl)CC1 | 8.36 µM | –
COc1ccc(-n2nnc(C)c2C(=O)N2CCN(c3ccc([N+](=O)[O-])cc3Cl)CC2)cc1 | 5.61 µM | –
COc1ccccc1-n1nnc(C)c1C(=O)N1CCN(c2ccccc2Cl)CC1 | 48.1 µM | –
COc1ccccc1-n1nnc(C)c1C(=O)N1CCN(c2ccc([N+](=O)[O-])cc2Cl)CC1 | 0.68 µM | Activity [2]: Active; Activity [3]: Active; IC50 [4]: 0.23 µM; IC50 [5]: > 50 µM; IC50 [6]: 1.11 µM; IC50 [7]: 1.4 µM
Cc1nnn(-c2ccccc2Cl)c1C(=O)N1CCN(c2ccc([N+](=O)[O-])cc2Cl)CC1 | 1.2 µM | –
Cc1nnn(-c2ccccc2OC(C)C)c1C(=O)N1CCN(c2ccc([N+](=O)[O-])cc2Cl)CC1 | 8.42 µM | –
CCc1nnn(-c2ccccc2OC)c1C(=O)N1CCN(c2ccc([N+](=O)[O-])cc2Cl)CC1 | > 50 µM | –
CC(=O)c1ccccc1-n1nnc(C)c1C(=O)N1CCN(c2ccc([N+](=O)[O-])cc2Cl)CC1 | 13.7 µM | –
COc1ccccc1-c1ccccc1C(=O)N1CCN(c2ccc([N+](=O)[O-])cc2Cl)CC1 | 1.57 µM | –
Cc1onc(-c2ccccc2)c1C(=O)N1CCN(c2ccc([N+](=O)[O-])cc2Cl)CC1 [NUCLEOZIN] | 0.32 µM | Activity [3]: Active; IC50 [4]: 0.1 µM; Activity [8]: Dose-dependent effect; IC50 [5]: > 50 µM; IC50 [6]: 0.66 µM; IC50 [7]: 0.49 µM
O=C(c1ccccc1-c1ccccc1)N1CCN(c2ccc([N+](=O)[O-])cc2Cl)CC1 | 5.24 µM | –
Cc1ccccc1-n1nnc(C)c1C(=O)N1CCN(c2ccc([N+](=O)[O-])cc2Cl)CC1 | 2.4 µM | –
NC12CC3CC(CC(C3)C1)C2 [AMANTADINE] | > 50 µM | –
Cc1nnn(-c2cccc(Cl)c2)c1C(=O)N1CCN(c2ccc([N+](=O)[O-])cc2Cl)CC1 | 4.89 µM | –
CCOc1ccccc1-n1nnc(C)c1C(=O)N1CCN(c2ccc([N+](=O)[O-])cc2Cl)CC1 | 3.22 µM | –
COc1ccccc1-n1nnc(C)c1C(=O)N1CCN(c2ccc([N+](=O)[O-])cc2)CC1 | 17 µM | –
COc1cccc(OC)c1-n1nnc(C)c1C(=O)N1CCN(c2ccc([N+](=O)[O-])cc2Cl)CC1 | 1.34 µM | –
Cc1noc(-c2ccccc2)c1C(=O)N1CCN(c2ccc([N+](=O)[O-])cc2Cl)CC1 | 4.83 µM | –
Cc1nnn(-c2ccc(Cl)cc2)c1C(=O)N1CCN(c2ccc([N+](=O)[O-])cc2Cl)CC1 | 4.93 µM | –
